pEC50: −log10 of the molar value.
Experiments:
hGPR40 [1] = biological target: T1, hGPR40 (Homo sapiens, UniProt O14842); assay: FDSS-based intracellular calcium assay (hGPR40 EC50); type: cell-based; set-up: 3xFLAG; expressed in transfected cells; settings: cells expressing GPR40, intracellular Ca2+ response, FDSS reader
Protocol: FDSS-Based Intracellular Calcium Assay
Cell lines expressing GPR40 are generated using the pDEST-3×FLAG gene expression system and are cultured in culture medium comprising the following components: F12 (Gibco #11765), 10% lipid deprived fetal bovine serum, 250 μg/mL zeocin and 500 μg/mL G418. To conduct the fluorescent imaging plate reader (FLIPR)-based calcium flux assay to measure intracellular Ca^2+ response, cells expressing GPR40 are plated on 384 well plates (BD Biocoat #356697) at a density of 20,000 cells/20 μL medium per well in phenol red and serum-free DMEM (Gibco #21063-029) and incubated overnight. Using BD kit #s 80500-310 or -301, the cells are incubated with 20 μL per well of Hank's buffered salt solution with 1.7 mM probenecid and Fluo-3 at 37° C. for 30 min. Compounds are dissolved in DMSO and diluted to desired concentrations with assay buffer and added to the cells as 3× solution (20 μL per well). Run fluorescence/luminescence reader FDSS (Hamamatsu) to read intracellular Ca^2+ response.

hGPR40 [2] = biological target: T1, hGPR40; assay: GPR40 IP-One HTRF assay in HEK293/GPR40 inducible cell lines (hGPR40 IP1 EC50); type: cell-based; set-up: expressed in transfected cells; settings: HEK293 cells with tetracycline-inducible human GPR40, IP-One HTRF
Protocol: GPR40 IP-One HTRF Assays in HEK293/GPR40 Inducible Cell Lines
Human, mouse and rat GPR40-mediated intracellular IP-One HTRF assays were established using human embryonic kidney HEK293 cells stably transfected with a tetracycline-inducible human, mouse or rat GPR40 receptor. Cells were routinely cultured in growth medium containing DMEM (Gibco Cat. #12430-047), 10% qualified FBS (Sigma, Cat. #F2442), 200 μg/mL hygromycin (Invitrogen, Cat. #16087-010) and 1.5 μg/mL blasticidin (Invitrogen, Cat. #R210-01). About 12-15 million cells were passed into a T175 tissue culture flask (BD Falcon 353112) with growth medium and incubated for 16-18 hours (overnight) at 37° C. with 5% CO2. The next day, assay medium was exchanged with growth medium containing 1000 ng/mL of tetracycline (Fluka Analytical, Cat. #87128) to induce GPR40 expression for 18-24 hours at 37° C. incubator with 5% CO2. After induction, the cells were washed with PBS (Gibco, Cat. #14190-036) and detached with Cell Stripper (Cellgro, Cat. #25-056-CL). 10-20 mL growth medium were added to the flask and cells were collected in 50 mL tubes (Falcon, Cat. #352098) and spun at 1000 RPM for 5 minutes. Culture medium was aspirated and the cells were resuspended in 10 mL of 1× IP-One Stimulation Buffer from the Cisbio IP-One kit (Cisbio, Cat. #62IPAPEJ). The cells were diluted to 1.4×10^6 cells/mL in Stimulation Buffer.
Test compounds were 3-fold, 11-point serially diluted in DMSO in a REMP assay plate (Matrix Cat. #4307) by Biocel (Agilent). The compounds were transferred into an Echo plate (Labcyte, Cat. #LP-0200) and 20 nL of diluted compounds were transferred to an assay plate (proxi-plate from Perkin Elmer, Cat. #6008289) by Echo acoustic nano dispenser (Labcyte, model ECHO550). 14 μL of the diluted cells were then added to the assay plate by Thermo (SN 836 330) Combi Drop and incubated at room temperature for 45 minutes. Then 3 μL of IP1 coupled to dye D2 from the Cisbio IP-One kit were added to the assay plate followed by 3 μL of Lumi4-Tb cryptate K from the kit. The plate was further incubated at room for 1 hour before reading on the Envision (Perkin Elmer Mode12101) with an HTRF protocol. Activation data for the test compound over a range of concentrations was plotted as percentage activation of the test compound (100%=maximum response). After correcting for background [(sample read-mean of low control)/(mean of high control-mean of low control)](low control is DMSO without any compound), EC50 values were determined. […] The maximal Y value observed (% Ymax) was calculated relative to a BMS standard reference compound at a final concentration of 0.625 μM.

T1 sequence (O14842 whole entry): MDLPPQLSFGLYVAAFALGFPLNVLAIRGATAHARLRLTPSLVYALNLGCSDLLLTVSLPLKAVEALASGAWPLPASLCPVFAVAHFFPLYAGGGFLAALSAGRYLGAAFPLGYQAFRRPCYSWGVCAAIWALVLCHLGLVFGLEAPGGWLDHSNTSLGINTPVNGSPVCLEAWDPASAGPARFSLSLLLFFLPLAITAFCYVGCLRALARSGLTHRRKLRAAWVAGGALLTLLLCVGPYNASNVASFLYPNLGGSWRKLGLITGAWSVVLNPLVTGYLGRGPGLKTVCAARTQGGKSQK

| SMILES | pEC50 (hGPR40 [1]) | pEC50 (hGPR40 [2]) |
| --- | --- | --- |
| COc1cc(N2CC[C@@H](Oc3cnc(N4C[C@H](C(F)(F)F)C[C@@H]4CC(=O)O)cn3)[C@H](C)C2)c(Cl)cn1 [Example 9, 2-((2R,4R)-1-(5-((3R,4R)-1-(5-Chloro-2-methoxypyridin-4-yl)-3-methylpiperidin-4-yloxy)pyrazin-2-yl)-4-(trifluoromethyl)pyrrolidin-2-yl)acetic acid] | 7.08 | – |
| CCOc1ccc(F)c(N2CC[C@@H](Oc3cnc(N4C[C@H](OC)[C@@H](C)[C@@H]4CC(=O)O)cn3)[C@H](C)C2)c1 [Example 3, 2-((2S,3S,4R)-1-(5-((3R,4R)-1-(5-Ethoxy-2-fluorophenyl)-3-methylpiperidin-4-yloxy)pyrazin-2-yl)-4-methoxy-3-methylpyrrolidin-2-yl)acetic acid] | 7.38 | 7.68 |
| COc1cc(N2CC[C@@H](Oc3cnc(N4C[C@H](OC)C[C@@H]4CC(=O)O)cn3)[C@H](C)C2)c(Cl)cn1 [Example 6, 2-((2R,4R)-1-(5-((3R,4R)-1-(5-Chloro-2-methoxypyridin-4-yl)-3-methylpiperidin-4-yloxy)pyrazin-2-yl)-4-methoxypyrrolidin-2-yl)acetic acid] | 6.82 | 7.36 |
| COCCCO[C@H]1CN(c2cnc(O[C@@H]3CCN(c4cc(OC)ncc4Cl)C[C@H]3C)cn2)[C@@H](CC(=O)O)[C@@H]1C [Example 2, 2-((2S,3S,4R)-1-(5-((3R,4R)-1-(5-Chloro-2-methoxypyridin-4-yl)-3-methylpiperidin-4-yloxy)pyrazin-2-yl)-4-(3-methoxypropoxy)-3-methylpyrrolidin-2-yl)acetic acid] | 7.37 | 8.40 |
| COc1cc(N2CC[C@@H](Oc3cnc(N4C[C@H](OC)C[C@H]4CC(=O)O)cn3)[C@H](C)C2)c(Cl)cn1 [Example 7, 2-((2S,4R)-1-(5-((3R,4R)-1-(5-Chloro-2-methoxypyridin-4-yl)-3-methylpiperidin-4-yloxy)pyrazin-2-yl)-4-methoxypyrrolidin-2-yl)acetic acid] | 5.49 | – |
| CCOc1ccc(F)c(N2CC[C@@H](Oc3cnc(N4C[C@H](OCCCOC)[C@@H](C)[C@@H]4CC(=O)O)cn3)[C@H](C)C2)c1 [Example 4, 2-((2S,3S,4R)-1-(5-((3R,4R)-1-(5-Ethoxy-2-fluorophenyl)-3-methylpiperidin-4-yloxy)pyrazin-2-yl)-4-(3-methoxypropoxy)-3-methylpyrrolidin-2-yl)acetic acid] | 7.35 | – |
| CCOc1ccc(F)c(N2CC[C@@H](Oc3cnc(N4CC(OCCCOC)C(C)C4CC(=O)O)cn3)[C@H](C)C2)c1 (stereo partly drawn) [Example 5, 2-(1-(5-(((3R,4R)-1-(5-Ethoxy-2-fluorophenyl)-3-methylpiperidin-4-yl)oxy)pyrazin-2-yl)-4-(3-methoxypropoxy)-3-methylpyrrolidin-2-yl)acetic acid] | 6.08 | – |
| COc1cc(N2CC[C@@H](Oc3cnc(N4C[C@H](C(F)(F)F)C[C@H]4CC(=O)O)cn3)[C@H](C)C2)c(Cl)cn1 [Example 8, 2-((2S,4R)-1-(5-((3R,4R)-1-(5-Chloro-2-methoxypyridin-4-yl)-3-methylpiperidin-4-yloxy)pyrazin-2-yl)-4-(trifluoromethyl)pyrrolidin-2-yl)acetic acid] | 6.02 | – |
| COc1cc(N2CC[C@@H](Oc3cnc(N4C[C@H](OC)[C@@H](C)[C@@H]4CC(=O)O)cn3)[C@H](C)C2)c(Cl)cn1 [Example 1, 2-((2S,3S,4R)-1-(5-((3R,4R)-1-(5-Chloro-2-methoxypyridin-4-yl)-3-methylpiperidin-4-yloxy)pyrazin-2-yl)-4-methoxy-3-methylpyrrolidin-2-yl)acetic acid] | 7.14 | 7.85 |
